Data on 13 molecules can be found in ChEMBL document CHEMBL1136392, “Anilinopyrimidines as novel antituberculosis agents” (Bioorg Med Chem Lett, 2003).

A word on the MIC: it is the least concentration at which growth counts as inhibited. The term IC50 denotes the midpoint of a concentration-inhibition curve. A higher IC50 goes with weaker potency in that assay.

≈ marks a conversion by molar mass, not a printed value. Calls of active or inactive are those of the source. The rule behind the calls is not given here.

Experiment [1] has as its system Mycobacterium tuberculosis. Kind of experiment: Minimum inhibitory concentration against Mycobacterium tuberculosis using microplate alamar blue assay. The class given is functional. For orientation: Resazurin is reduced to fluorescent resorufin, in cell work by metabolically active cells.
For experiment [2], the system named is Mycobacterium tuberculosis. Description: Minimum inhibitory concentration against Mycobacterium tuberculosis using microplate alamar blue assay; Inactive. The class given is functional, organism-based.
A further experiment has as its system Plasmodium falciparum. Kind of experiment: In vitro activity as 50% reduction in parasite growth against Plasmodium falciparum by [3H]hypoxanthine uptake. The class given is functional, organism-based.
The test system of experiment [3] is Mycobacterium tuberculosis. Description: Minimum inhibitory concentration against (MDR-TB) Mycobacterium tuberculosis using microplate alamar blue assay. In kind it is functional.
Experiment [4] can be described thus: Cytotoxic concentration of compound against human epidermal carcinoma (KB) cell line. In kind it is functional.
Experiment [5] can be described thus: Cytotoxic concentration of compound against human small cell lung cancer (NCI-187). In kind it is functional.
Another experiment concerns Breast carcinoma cell. Description: Cytotoxic concentration of compound against human breast cancer cells. In kind it is functional, cell-based.

Regarding `CCN(CC)c1nc(C)cc(N(C)c2ccccc2)n1`, the MIC in experiment [1] was 50 µg/mL (≈ 185 µM).
Still for that read-out and setting: to `Cc1cc(Nc2ccccc2)nc(Cl)n1` belongs 50 µg/mL (≈ 228 µM); to `CCCN(CC1CC1)c1nc(C)cc(N(C)c2c(C)cc(C)cc2C)n1`, 3.12 µg/mL (≈ 8.85 µM); to `CCCN(CC1CC1)c1nc(C)cc(Nc2ccccc2)n1`, 12.5 µg/mL (≈ 42.2 µM).
On the same count and under the same terms, to `CCCN(CC1CC1)c1nc(C)cc(N(C)c2ccccc2)n1` belongs 12.5 µg/mL (≈ 40.3 µM); to `CCN(CC)c1nc(C)cc(Nc2ccccc2)n1`, 25 µg/mL (≈ 97.5 µM).
For `Cc1cc(C)c(Nc2cc(C)nc(Cl)n2)c(C)c1`, the MIC result in experiment [2] was “inactive”.
The molecule `C[C@@H]1CC[C@H]2[C@@H](C)C(=O)O[C@@H]3O[C@@]4(C)CC[C@@H]1[C@]32OO4` [ARTEMISININ] gave an IC50 in the experiment on Plasmodium falciparum of 0.001 µg/mL (≈ 0.00354 µM).
On to `CC(C)/N=c1\cc2n(-c3ccc(Cl)cc3)c3ccccc3nc-2cc1Nc1ccc(Cl)cc1` [CLOFAZIMINE], for which it took 2 µg/mL (≈ 4.22 µM) to inhibit growth in experiment [3] (MIC).
Take `Cc1c2ccncc2c(C)c2c1[nH]c1ccccc12` [ELLIPTECINE]: the IC50 (in experiment [4]; in experiment [5]; in the experiment with Breast carcinoma cell) was 0.1 µg/mL (≈ 0.406 µM) throughout.
`NNC(=O)c1ccncc1` [ISONIAZID]: in experiment [1], the MIC came to 0.04 µg/mL (≈ 0.292 µM).
Still for that read-out and setting: to `NC[C@H]1O[C@H](O[C@H]2[C@H](O)[C@@H](O[C@H]3O[C@H](CO)[C@@H](O)[C@H](N)[C@H]3O)[C@H](N)C[C@@H]2N)[C@H](O)[C@@H](O)[C@@H]1O.O=S(=O)(O)O` [KANAMYCIN SULFATE] belongs 5 µg/mL; to `NC(=O)c1cnccn1` [PYRAZINAMIDE], 20 µg/mL (≈ 162 µM).
